Results on 3 molecules are retold here after paper PMC11187260, “Unraveling the interconversion pharmacokinetics and oral bioavailability of the major ginger constituents: [6]-gingerol, [6]-shogaol, and zingerone after single-dose administration in rats” (Frontiers in Pharmacology, 2024).

The nature of data set [1]: Interconversion clearance between 6G and 6S after intravenous administration. The class given is in vivo, Female Sprague Dawley rats. To be noted: single i.v. 3 mg/kg; for clearance: female, Sprague-Dawley, rat, plasma, iv. The protocol:
The interconversion between 6G and 6S was determined using previously published methods ([Ebling and Jusko, 1986]; [Prueksaritanont et al., 2005]). The clearance of 6G biotransformed into 6S was calculated as CL12, while the reverse clearance (6S → 6G) was calculated as CL21. The irreversible elimination clearances of 6G and 6S were calculated as CL10 and CL20, respectively. The following equations were used in accordance with the notation provided in Supplementary Table S3. CL12=Dose^shogaol […] CL21=Dose^gingerol […] CL10=Dose^gingerol x AUCshogaolshogaol- Dose^shogaol […] CL20=Dose^shogaol […]- Dose^gingerol […]

Details of data set [2]: method as in Xu et al. (2016) and Jiang et al. (2008). To be noted: 6G after oral administration in rats; ref Xu et al. (2016) and Jiang et al. (2008); cited from earlier work.
Data set [3] is described as follows: Pharmacokinetics after single intravenous administration (3 mg/kg), plasma LC-MS/MS. Particulars: female, Sprague-Dawley, rat, iv, plasma analyte after zingerone i.v. 3 mg/kg, mean ± SD n=6. Type of data set: in vivo, Female Sprague Dawley rats. The procedure:
This study is composed of two sections; the first section involves an investigation of the interconversion pharmacokinetics of the pure compounds, and the second focuses on tissue distribution. All rats were transferred to metabolic cages and fasted overnight for at least 10 h. The animals were then randomly divided into four groups (6 rats/group) to receive a single intravenous (i.v.) administration of either 6G, 6S, zingerone, or vehicle via the lateral tail vein at a dosage of 3 mg/kg. After a 7-week washout period, the rats received 30 mg/kg of the same test compounds through a single oral (p.o.) administration. Following each administration, blood samples (300 µL) were collected in heparinized tubes from the lateral tail vein (while rats were under anesthesia with isoflurane) at specified time points: 0.083, 0.25, 0.5, 1, 1.5, 2, 3, 4, 6, 8, and 24 h after administration. An additional 1 mL of blood sample was collected from each rat at pre-dose (0 h) and post-dose (24 h) for clinical laboratory testing and safety evaluation. All heparinized blood samples were initially centrifuged at 5,000 × g, 4 °C, for 10 min. Subsequently, the plasma was carefully transferred to a cryotube as an aliquot sample and then stored at −40 °C until analysis. Urine and feces were collected during the intervals of 0–24 h and 24–48 h post-dosing, and their weights and volumes were documented. All collected urine and feces samples were stored at −40 °C until analysis. Plasma samples were processed through protein precipitation. In brief, 50 µL of plasma was mixed with 200 µL of methanol containing 50 ng/mL of IS (dihydrocapsaicin). The mixtures were vortexed and centrifuged at 14,000 × g at 4 °C for 10 min. The supernatant was filtered through a […] PVDF membrane (Chrome Tech, MN, USA) before analysis. Investigation of glucuronide conjugations followed a previously published method with some modification ([Wang et al., 2017]; [Songvut et al., 2023]). A 50 μL aliquot of plasma, urine, or feces sample was incubated at 37 °C for a minimum of 30 min with 50 μL of β-glucuronidase (3,000 U/mL) in a sodium phosphate buffer (pH 6.8). For sample extraction, 150 μL of methanol containing 50 μg/L of IS was pipetted into the pre-incubated samples. Subsequently, the mixtures were vortexed for 10 min and then centrifuged at 14,000 × g at 4 °C for 10 min. The supernatants were filtered through a […] PVDF membrane (Chrome Tech, MN, United States) and then analyzed using the validated LC-MS/MS method. Quantitative analysis was conducted using liquid chromatography-tandem mass spectrometry (LC-MS/MS) with a Nexera X2 LCMS-8060NX instrument (Shimadzu, Japan). The instrument included a CBM-40lite system controller, CTO-40C column oven, SIL-40C XR autosampler, LC-40D XR solvent pump unit, FCV-DGU-403 degasser, and 20AH2 switching valve. The LC-MS/MS system was operated with a binary pump and equipped with a triple quadrupole mass spectrometer. Pharmacokinetic parameters were assessed using PK Solutions software (version 2.0) with non-compartmental analysis. The AUC was calculated using the Linear-Log Trapezoidal Method. The maximum plasma concentration (Cmax) and time to reach maximum plasma concentration (Tmax) were taken directly from the graph.

Each structure is given as a SMILES string. Where two headings read alike, the source gives them in different places.

Take `CCCCC[C@H](O)CC(=O)CCc1ccc(O)c(OC)c1` [[6]-gingerol]: in data set [1] (read-out: CL10 (irreversible elimination clearance of 6G) (converted)), the clearance was 8.67 mL/min/kg. Besides, the “CL12 relative to reverse clearance CL21” value in data set [1] is “approximately sevenfold greater”. In addition, the Tmax in data set [2] is recorded as 10 min.

`CCCCC/C=C/C(=O)CCc1ccc(O)c(OC)c1` [[6]-shogaol]: in data set [1] (read-out: CL20 (irreversible elimination clearance of 6S) (converted)), the clearance is 11.3 mL/min/kg.

As to `COc1cc(CCC(C)=O)ccc1O` [zingerone, 4-(4-hydroxy-3-methoxyphenyl)-2-butanone], in data set [3], the total exposure AUC(0-inf) amounted to 12600 ng·h/mL and the C0 turned out to be 35100 ng/mL. Further, the AUC(0-t) in data set [3] (read-out: AUC(0-t)) is 12600 ng·h/mL.

Broadly, the clearance is the rate of elimination divided by the concentration. For orientation: Tmax means the time from dosing to the highest level. By AUC(0-inf) is commonly meant total exposure, with the tail of the curve extrapolated. For orientation: AUC(0-t) means the area under the concentration-time curve up to a stated or last time point.
